According to patent US10874743B2, “IRAK degraders and uses thereof” (Kymera Therapeutics, Inc., priority 2017, dated 2020):

Biological target: T1, IRAK4 (Homo sapiens, UniProt Q9NWZ3)
T1 sequence (Q9NWZ3 1-460): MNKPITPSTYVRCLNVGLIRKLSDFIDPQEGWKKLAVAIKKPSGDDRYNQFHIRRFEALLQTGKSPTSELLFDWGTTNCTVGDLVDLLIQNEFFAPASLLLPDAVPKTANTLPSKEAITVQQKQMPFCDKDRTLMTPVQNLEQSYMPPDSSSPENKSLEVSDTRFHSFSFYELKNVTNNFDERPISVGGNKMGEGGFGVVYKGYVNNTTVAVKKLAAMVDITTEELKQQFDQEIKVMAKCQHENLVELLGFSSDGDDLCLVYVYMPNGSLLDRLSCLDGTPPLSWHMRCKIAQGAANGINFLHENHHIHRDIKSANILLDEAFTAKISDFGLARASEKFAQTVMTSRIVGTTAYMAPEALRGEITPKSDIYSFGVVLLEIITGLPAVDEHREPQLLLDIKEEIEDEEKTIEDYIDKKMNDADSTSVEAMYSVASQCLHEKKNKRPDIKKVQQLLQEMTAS
Assay: OCI-LY-10 MSD assay for IRAK4 DC50
Assay type: cell-based
Parameters: endogenous in cells; host or cells: OCI-LY10
Conditions: OCI-LY10 cells, 4 hr incubation, concentration required to degrade 50% of protein
Experimental: A MSD assay was run to determine the concentration of compound required to degrade 50% of protein (DC50).
Day 1 • Compounds were reconstituted to 10 mM in stock solutions. The stock solutions were diluted to 5 mM and 45 μL of each dilution was transferred to a 384 pp-plate. A 3 fold, 8-point serial dilution was performed by transferring 15 μL of compound into 30 μL DMSO using Janus. • 20 nL of each compounds were added into each well of a 96-well plate (Corning3799). • OCI-Ly10 cells were seeded into the 96-well plate at 3.0*10e^5 cells/100 μL/well. • The cell plate was shaken at 720 rpm for 5 min and incubated for 4 hr. • The 100 μL of cells were transferred into the 96-PCR plate and spun down at high speed for 5 mins. • The supernatant was discarded and 100 μL of RIPA lysis buffer with proteinase inhibitors was added per well. The plate was then sealed and shaken at 600 rpm and 4° C. for about 20 min. • The plate was then spun down at high speed (about 3200 g) for 30 min and then frozen in a −80° C. fridge. • A bare MSD plate (L15XA-3) was coated with 2 μg/mL of capture antibody (mouse Anti-IRAK4 antibody [2H9], ab119942) in PBS to 40 μL/well and incubated overnight at 4° C.
Day 2 • The MSD coated plate was washed 3× (150 μL/well) with 1×TBST (CST #9997S). • The MSD plate was then blocked with 150 μL of blocking buffer [3% Blocker A (MSD, R93BA-4) in TBST]/well and shaken for 1 hr at R^† and 600 rpm. • The MSD plate was washed 3× (150 μL/well) with 1×TBST. The sample RIPA lysates were then added to the MSD plate (50 μL/well) and shaken for 1 hr at R^† and 600 rpm. • The MSD plate was washed 3× (150 μL/well) with 1×TBST and the primary detection antibody (Rabbit Anti-IRAK4 antibody [Y279], ab32511) was added to a final concentration of 1 μg/ml with 25 μL/well. The plate was then shaken for 1 hr at RT and 600 rpm. • The MSD plate was washed 3× (150 μL/well) with 1×TBST and the secondary detection antibody, SULFO-TAG anti-species antibody (Anti Rabbit Antibody (R32AB-5) MSD, R32AB-1) was added to a volume of 25 μL/well at a final concentration of 1 jag/ml. The plate was then shaken for 1 hr at RT and 600 rpm. • The MSD plate was then washed 3× (150 μL/well) with 1×TBST. • lx MSD reading buffer was then added (150 μL/well) and the plate was diluted with 4× water. (MSD, R92TC-2) • The MSD instrument was then read.
Data Analysis • The remaining activity was calculated following the formula below:
Calculate • The DC50 was calculated by fitting the Curve using Xlfit (v5.3.1.3), equation 201: Y=Bottom+(Top−Bottom)/(1+10^((Log IC50−X)*HillSlope))
OCI-LY-10 DC50 results. The letter codes for IRAK4 DC50 indicate the concentration of compound required to degrade 50% of protein: A (<0.05 μM), B (0.05-0.1 μM), C (0.1-0.5 μM), D (0.5-1.0 μM), and E (>1.0 μM).

| Compound | DC50 [nM] |
| --- | --- |
| Cn1cc(NC(=O)c2cocn2)c(C(=O)NCCOCCOCCOCCNc2cccc3c2C(=O)N(C2CCC(=O)NC2=O)C3=O)n1 (centres unmarked) [I-300] | > 1000 |
| Cn1cc(NC(=O)c2coc(-c3ccnc(NCC(F)(F)F)c3)n2)c(CNCCCOCC(C)(C)COCCCc2cccc3c2n(C)c(=O)n3C2CCC(=O)NC2=O)n1 (centres unmarked) [I-420] | > 1000 |
| Cn1c(=O)n(C2CCC(=O)NC2=O)c2ccc(CCCCOCCCCNC(=O)c3ccc(-n4cc(NC(=O)c5cnn6ccc(N7CCNCC7)nc56)c(C(F)F)n4)cc3)cc21 (centres unmarked) [I-445, N-[3-(difluoromethyl)-1-[4-[4-[4-[1-(2,6-dioxo-3-piperidyl)-3-methyl-2-oxo-benzimidazol-5-yl]butoxylbutyl]carbamoyl]phenyl]pyrazol-4-yl]-5-piperazin-1-yl-pyrazolo[1,5-a]pyrimidine-3-carboxamide] | 50 to 100 |
| COCC(=O)N[C@H](C(=O)N1Cc2cc(OCCOCCOCCOCCOCCNC(=O)c3ccc(-n4cc(NC(=O)c5coc(-c6ccnc(NCC7CC7)c6)n5)c(C(F)F)n4)cc3)ccc2CC1C(=O)N[C@@H]1CCCc2ccccc21)C(C)(C)C (some centres unmarked) [I-296] | > 1000 |
| Cn1cc(NC(=O)c2coc(-c3ccncc3)n2)c(C(=O)NCCOCCOCCOCCNc2cccc3c2C(=O)N(C2CCC(=O)NC2=O)C3=O)n1 (centres unmarked) [I-301] | > 1000 |
| COCC(=O)N[C@H](C(=O)N1Cc2cc(OCCOCCOCCOCCOCCOCCNCc3ccc(-n4cc(NC(=O)c5coc(-c6ccnc(NCC7CC7)c6)n5)c(C(F)F)n4)cc3)ccc2CC1C(=O)N[C@@H]1CCCc2ccccc21)C(C)(C)C (some centres unmarked) [I-416] | > 1000 |
| Cn1c(=O)n(C2CCC(=O)NC2=O)c2ccc(CCCCOCCCCNCc3ccc(-n4cc(NC(=O)c5cnn6ccc(N7CCNCC7)nc56)c(C(F)F)n4)cc3)cc21 (centres unmarked) [I-441, N-[3-(difluoromethyl)-1-[4-[[4-[4-[1-(2,6-dioxo-3-piperidyl)-3-methyl-2-oxo-benzimidazol-5-yl]butoxy]butylamino]methyl]phenyl]pyrazol-4-yl]-5-piperazin-1-yl-pyrazolo[1,5-a]pyrimidine-3-carboxamide] | > 1000 |
| Cc1ncsc1-c1ccc(CNC(=O)[C@@H]2C[C@@H](O)CN2C(=O)[C@@H](NCCOCCOCCOCCNCc2ccc(-n3cc(NC(=O)c4coc(-c5ccnc(NCC(F)(F)F)c5)n4)c(C(N)=O)n3)cc2)C(C)(C)C)cc1 [I-415] | > 1000 |
| Cn1c(=O)n(C2CCC(=O)NC2=O)c2cccc(CCCOCCOCCNCc3ccc(-n4cc(NC(=O)c5cocn5)c(C(N)=O)n4)cc3)c21 (centres unmarked) [I-422] | > 1000 |
| O=C1CCC(N2C(=O)c3cccc(NCCCCNCCCNC(=O)c4ccc(-n5cc(NC(=O)c6coc(-c7ccnc(NCC8CC8)c7)n6)c(C(F)(F)F)n5)cc4)c3C2=O)C(=O)N1 (centres unmarked) [I-218] | > 1000 |
| Cn1c(=O)n(C2CCC(=O)NC2=O)c2ccc(CCCOCCCN3CCN(C4CCC(Nc5ncnn6ccc(C7CCOCC7)c56)CC4)CC3)cc21 (centres unmarked) [I-436, 3-[3-Methyl-2-oxo-5-[3-[3-[4-[4-[(5-tetrahydropyran-4-ylpyrrolo[2,1-f][1,2,4]triazin-4-yl)amino]cyclohexyl]piperazin-1-yl]propoxy]propyl]benzimidazol-1-yl]piperidine-2,6-dione] | > 1000 |
| Cc1ncsc1-c1ccc(CNC(=O)[C@@H]2C[C@@H](O)CN2C(=O)[C@@H](NCCOCCOCCOCCNCc2nn(C)cc2NC(=O)c2coc(-c3ccnc(NCC(F)(F)F)c3)n2)C(C)(C)C)cc1 [I-413] | > 1000 |
| Cc1ncsc1-c1ccc(CNC(=O)[C@@H]2C[C@@H](O)CN2C(=O)[C@@H](NC(=O)COCCOCCOCCOCCNC(=O)c2nn(C)cc2NC(=O)c2coc(-c3ccnc(NCC(F)(F)F)c3)n2)C(C)(C)C)cc1 [I-299] | > 1000 |

Second part, the compound after the results:

| DC50 [nM] | Compound |
| --- | --- |
| < 50 | NC(=O)c1nn(-c2ccc(C(=O)NCCOCCCOCCNc3cccc4c3C(=O)N(C3CCC(=O)NC3=O)C4=O)cc2)cc1NC(=O)c1coc(-c2ccnc(NCC3CC3)c2)n1 (centres unmarked) [I-213] |
| 50 to 100 | Cn1c(=O)n(C2CCC(=O)NC2=O)c2ccc(CCCOCCOCCOCCOCC(=O)N3CCN(C4CCC(Nc5ncnc6[nH]cc(C7CCOCC7)c56)CC4)CC3)cc21 (centres unmarked) [I-447, 3-[3-Methyl-2-oxo-5-[3-[2-[2-[2-[2-oxo-2-[4-[4-[(5-tetrahydropyran-4-yl-7H-pyrrolo[2,3-d]pyrimidin-4-yl)amino]cyclohexyl]piperazin-1-yl]ethoxy]ethoxy]ethoxy]ethoxy]propyl]benzimidazol-1-yl]piperidine-2,6-dione] |
| 100 to 500 | Cn1c(=O)n(C2CCC(=O)NC2=O)c2cccc(CCCOCCOCCNCc3ccc(-n4cc(NC(=O)c5cnn6ccc(N7CCNCC7)nc56)c(C(F)F)n4)cc3)c21 (centres unmarked) [I-446, N-[3-(difluoromethyl)-1-[4-[[2-[2-[3-[1-(2,6-dioxo-3-piperidyl)-3-methyl-2-oxo-benzimidazol-4-yl]propoxy]ethoxy]ethylamino]methyl]phenyl]pyrazol-4-yl]-5-piperazin-1-yl-pyrazolo[1,5-a]pyrimidine-3-carboxamide] |
| < 50 | O=C1CCC(n2c(=O)n(CCOCCOCCNC(=O)c3ccc(-n4cc(NC(=O)c5coc(-c6ccnc(NCC7CC7)c6)n5)c(C(F)F)n4)cc3)c3ccccc32)C(=O)N1 (centres unmarked) [I-251] |
| < 50 | O=C1CCC(N2C(=O)c3cccc(NCCOCCOCCNC(=O)c4ccc(-n5cc(NC(=O)c6coc(-c7ccnc(NCC(F)(F)F)c7)n6)c(N6CCN(CCO)C6=O)n5)cc4)c3C2=O)C(=O)N1 (centres unmarked) [I-428] |
| < 50 | CC(NCCOCCOCCCc1cccc2c1n(C)c(=O)n2C1CCC(=O)NC1=O)c1ccc(-n2cc(NC(=O)c3coc(-c4ccnc(NCC5CC5)c4)n3)c(C(F)F)n2)cc1 (centres unmarked) [I-401] |
| < 50 | CNC(=O)c1nn(-c2ccc(CNCCOCCOCCNc3cccc4c3C(=O)N(C3CCC(=O)NC3=O)C4=O)cc2)cc1NC(=O)c1coc(-c2ccnc(NCC(F)(F)F)c2)n1 (centres unmarked) [I-400] |
| < 50 | Cn1c(=O)n(C2CCC(=O)NC2=O)c2ccc(CCCOCCCOCCCNCc3ccc(-n4cc(NC(=O)c5coc(-c6ccnc(NCC7CC7)c6)n5)c(C(F)F)n4)cc3)cc21 (centres unmarked) [I-407] |
| 50 to 100 | Cn1c(=O)n(C2CCC(=O)NC2=O)c2cccc(CCCOCCOCCOCCOCC(=O)N3CCN(C4CCC(Nc5ncnc6[nH]cc(C7CCOCC7)c56)CC4)CC3)c21 (centres unmarked) [I-444, 3-[3-Methyl-2-oxo-4-[3-[2-[2-[2-[2-oxo-2-[4-[4-[(5-tetrahydropyran-4-yl-7H-pyrrolo[2,3-d]pyrimidin-4-yl)amino]cyclohexyl]piperazin-1-yl]ethoxy]ethoxy]ethoxy]ethoxy]propyl]benzimidazol-1-yl]piperidine-2,6-dione] |
| < 50 | O=C1CCC(N2C(=O)c3cccc(NC4CCN(CCOCCNC(=O)c5ccc(-n6cc(NC(=O)c7coc(-c8ccnc(NCC9CC9)c8)n7)c(C(F)F)n6)cc5)CC4)c3C2=O)C(=O)N1 (centres unmarked) [I-268] |
| < 50 | CN(CCOCCCc1cccc2c1C(=O)N(C1CCC(=O)NC1=O)C2=O)Cc1ccc(-n2cc(NC(=O)c3coc(-c4ccnc(NCC5CC5)c4)n3)c(C(N)=O)n2)cc1 (centres unmarked) [I-313] |
| 100 to 500 | O=C1CCC(N2C(=O)c3cccc(N4CCN(CCOCCNCc5ccc(-n6cc(NC(=O)c7coc(-c8ccnc(NCC9CC9)c8)n7)c(C(F)F)n6)cc5)CC4)c3C2=O)C(=O)N1 (centres unmarked) [I-390] |
| 50 to 100 | NC(=O)c1nn(-c2ccc(CNCCOCCOCCN3CCN(c4cccc5c4C(=O)N(C4CCC(=O)NC4=O)C5=O)CC3)cc2)cc1NC(=O)c1coc(-c2ccnc(NCC3CC3)c2)n1 (centres unmarked) [I-396] |
